From US20240132431A1, “METHOD FOR ALKYLATING ACIDIC FUNCTIONAL GROUP” (Chugai Seiyaku Kabushiki Kaisha, priority 2021, published 2024)

Target: T1, Bcl-2 protein (Recombinant Human Bcl-2 Protein) (Homo sapiens, UniProt P10415)
T1 construct: purchased Novus NBP2-34889
Assay: Binding evaluation of mixture library compounds to Bcl-2 using AS-MS (affinity selection mass spectrometry)
Details: for ASMS ratio (%) n = 1 / ASMS ratio (%) n = 2: AS-MS, mixture library, Bcl-2, ASMS Ratio(%)=(A−C)/B×100; for ASMS ratio (%) n = 1: replicate n = 1; for ASMS ratio (%) n = 2: replicate n = 2
How it was run: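 ASMS Ratio (%) was calculated as (A−C)/B×100, where A is the protein sample after SEC, B the protein-free sample without SEC and C the protein-free sample after SEC. Each compound was at […] in a 1200-member pool with 20 μM Bcl-2, incubated 1 h at 23° C.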

T1 sequence (P10415 whole entry): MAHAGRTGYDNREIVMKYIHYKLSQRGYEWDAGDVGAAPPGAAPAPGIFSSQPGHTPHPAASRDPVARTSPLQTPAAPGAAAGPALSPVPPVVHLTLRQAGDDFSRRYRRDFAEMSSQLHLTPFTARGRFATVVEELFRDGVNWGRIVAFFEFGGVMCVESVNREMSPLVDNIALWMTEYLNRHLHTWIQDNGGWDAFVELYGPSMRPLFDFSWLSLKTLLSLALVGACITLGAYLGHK

Row | ASMS ratio (%) (n = 1) | ASMS ratio (%) (n = 2) | ASMS ratio (%) n = 1 | ASMS ratio (%) n = 2 | SMILES
1 | 0.0% | 0.0% | – | – | CCOc1cccc(C#Cc2ccccc2CN2CCN(c3ccc(C(=O)NS(=O)(=O)CCC(F)(F)F)nn3)CC2)c1 [B2N095-01, 6-[4-[[2-[2-(3-Ethoxyphenyl)ethynyl]phenyl]methyl]piperazin-1-yl]-N-(3,3,3-trifluoropropylsulfonyl)pyridazine-3-carboxamide]
2 | 0.0% | 0.0% | – | – | CCOc1cccc(-c2ccc(C(C)N3CCN(c4ccc(C(=O)NS(=O)(=O)CCC(F)(F)F)cc4)CC3)cc2)c1 (stereo not shown) [B2N097-01, 4-[4-[1-[4-(3-Ethoxyphenyl)phenyl]ethyl]piperazin-1-yl]-N-(3,3,3-trifluoropropylsulfonyl)benzamide]
3 | 0.0% | −0.7% | – | – | CCOc1cncc(-c2ccc(C(C)N3CCN(c4ccc(C(=O)NS(=O)(=O)CCC(F)(F)F)cc4)CC3)cc2)c1 (stereo not shown) [B2N098-01, 4-[4-[1-[4-(5-Ethoxypyridin-3-yl)phenyl]ethyl]piperazin-1-yl]-N-(3,3,3-trifluoropropylsulfonyl)benzamide]
4 | 0.0% | 0.0% | – | – | CCOc1cccc(-c2ccc(C(C)N3CCN(c4ccc(C(=O)NS(=O)(=O)CCC(F)(F)F)cc4)CC3)c(F)c2)c1 (stereo not shown) [B2N099-01, 4-[4-[1-[4-(3-Ethoxyphenyl)-2-fluorophenyl]ethyl]piperazin-1-yl]-N-(3,3,3-trifluoropropylsulfonyl)benzamide]
5 | 0.0% | 0.0% | – | – | CCOc1cncc(-c2ccc(C(C)N3CCN(c4ccc(C(=O)NS(=O)(=O)CCC(F)(F)F)cc4)CC3)c(F)c2)c1 (stereo not shown) [B2N100-01, 4-[4-[1-[4-(5-Ethoxypyridin-3-yl)-2-fluorophenyl]ethyl]piperazin-1-yl]-N-(3,3,3-trifluoropropylsulfonyl)benzamide]
6 | – | – | 0.0% | 0.0% | CCOc1cccc(-c2csc(C(=O)N3CCN(c4ccc(C(=O)NS(=O)(=O)c5ccc(NCCSc6ccccc6)c([N+](=O)[O-])c5)nn4)CC3)c2)c1 [B2Q001-01, 6-[4-[4-(3-Ethoxyphenyl)thiophene-2-carbonyl]piperazin-1-yl]-N-[3-nitro-4-(2-phenylsulfanylethylamino)phenyl]sulfonylpyridazine-3-carboxamide]
7 | – | – | 24.5% | 17.2% | CCOc1cncc(-c2csc(C(=O)N3CCN(c4ccc(C(=O)NS(=O)(=O)c5ccc(NCCSc6ccccc6)c([N+](=O)[O-])c5)nn4)CC3)c2)c1 [B2Q002-01, 6-[4-[4-(5-Ethoxypyridin-3-yl)thiophene-2-carbonyl]piperazin-1-yl]-N-[3-nitro-4-(2-phenylsulfanylethylamino)phenyl]sulfonylpyridazine-3-carboxamide]
8 | – | – | 8.2% | 6.9% | CCOc1cccc(-c2ccc(C(=O)N3CCN(c4ccc(C(=O)NS(=O)(=O)c5ccc(NCCSc6ccccc6)c([N+](=O)[O-])c5)nn4)CC3)cc2C)c1 [B2Q003-01, 6-[4-[4-(3-Ethoxyphenyl)-3-methylbenzoyl]piperazin-1-yl]-N-[3-nitro-4-(2-phenylsulfanylethylamino)phenyl]sulfonylpyridazine-3-carboxamide]
9 | – | – | 10.7% | 8.7% | CCOc1cncc(-c2ccc(C(=O)N3CCN(c4ccc(C(=O)NS(=O)(=O)c5ccc(NCCSc6ccccc6)c([N+](=O)[O-])c5)nn4)CC3)cc2C)c1 [B2Q004-01, 6-[4-[4-(5-Ethoxypyridin-3-yl)-3-methylbenzoyl]piperazin-1-yl]-N-[3-nitro-4-(2-phenylsulfanylethylamino)phenyl]sulfonylpyridazine-3-carboxamide]
10 | – | – | 12.5% | 15.3% | CCOc1cccc(-c2ccc(C(=O)N3CCN(c4ccc(C(=O)NS(=O)(=O)c5ccc(NCCSc6ccccc6)c([N+](=O)[O-])c5)nn4)CC3)cc2F)c1 [B2Q005-01, 6-[4-[4-(3-Ethoxyphenyl)-3-fluorobenzoyl]piperazin-1-yl]-N-[3-nitro-4-(2-phenylsulfanylethylamino)phenyl]sulfonylpyridazine-3-carboxamide]
11 | – | – | 9.5% | 2.2% | CCOc1cncc(-c2ccc(C(=O)N3CCN(c4ccc(C(=O)NS(=O)(=O)c5ccc(NCCSc6ccccc6)c([N+](=O)[O-])c5)nn4)CC3)cc2F)c1 [B2Q006-01, 6-[4-[4-(5-Ethoxypyridin-3-yl)-3-fluorobenzoyl]piperazin-1-yl]-N-[3-nitro-4-(2-phenylsulfanylethylamino)phenyl]sulfonylpyridazine-3-carboxamide]
12 | – | – | 4.2% | −8.3% | CCOc1cccc(C#Cc2ccccc2C(=O)N2CCN(c3ccc(C(=O)NS(=O)(=O)c4ccc(NCCSc5ccccc5)c([N+](=O)[O-])c4)nn3)CC2)c1 [B2Q007-01, 6-[4-[2-[2-(3-Ethoxyphenyl)ethynyl]benzoyl]piperazin-1-yl]-N-[3-nitro-4-(2-phenylsulfanylethylamino)phenyl]sulfonylpyridazine-3-carboxamide]
13 | – | – | 16.5% | 0.5% | CCOc1cncc(C#Cc2ccccc2C(=O)N2CCN(c3ccc(C(=O)NS(=O)(=O)c4ccc(NCCSc5ccccc5)c([N+](=O)[O-])c4)nn3)CC2)c1 [B2Q008-01, 6-[4-[2-[2-(5-Ethoxypyridin-3-yl)ethynyl]benzoyl]piperazin-1-yl]-N-[3-nitro-4-(2-phenylsulfanylethylamino)phenyl]sulfonylpyridazine-3-carboxamide]
14 | – | – | 16.5% | 0.5% | CCOc1cccc(C#Cc2cncc(C(=O)N3CCN(c4ccc(C(=O)NS(=O)(=O)c5ccc(NCCSc6ccccc6)c([N+](=O)[O-])c5)nn4)CC3)c2)c1 [B2Q009-01, 6-[4-[5-[2-(3-Ethoxyphenyl)ethynyl]pyridine-3-carbonyl]piperazin-1-yl]-N-[3-nitro-4-(2-phenylsulfanylethylamino)phenyl]sulfonylpyridazine-3-carboxamide]
15 | – | – | 13.3% | 8.9% | CCOc1cncc(C#Cc2cncc(C(=O)N3CCN(c4ccc(C(=O)NS(=O)(=O)c5ccc(NCCSc6ccccc6)c([N+](=O)[O-])c5)nn4)CC3)c2)c1 [B2Q010-01, 6-[4-[5-[2-(5-Ethoxypyridin-3-yl)ethynyl]pyridine-3-carbonyl]piperazin-1-yl]-N-[3-nitro-4-(2-phenylsulfanylethylamino)phenyl]sulfonylpyridazine-3-carboxamide]
16 | – | – | 25.0% | −1.1% | CCOc1cccc(-c2ccccc2CCC(=O)N2CCN(c3ccc(C(=O)NS(=O)(=O)c4ccc(NCCSc5ccccc5)c([N+](=O)[O-])c4)nn3)CC2)c1 [B2Q011-01, 6-[4-[3-[2-(3-Ethoxyphenyl)phenyl]propanoyl]piperazin-1-yl]-N-[3-nitro-4-(2-phenylsulfanylethylamino)phenyl]sulfonylpyridazine-3-carboxamide]
17 | – | – | 0.0% | 0.0% | CCOc1cccc(-c2ccc(C(=O)N3CCN(c4ccc(C(=O)NS(=O)(=O)c5ccc(NCCSc6ccccc6)c([N+](=O)[O-])c5)nn4)CC3)c3ccccc23)c1 [B2Q013-01, 6-[4-[4-(3-Ethoxyphenyl)naphthalene-1-carbonyl]piperazin-1-yl]-N-[3-nitro-4-(2-phenylsulfanylethylamino)phenyl]sulfonylpyridazine-3-carboxamide]
18 | – | – | 9.3% | 14.5% | CCOc1cncc(-c2ccc(C(=O)N3CCN(c4ccc(C(=O)NS(=O)(=O)c5ccc(NCCSc6ccccc6)c([N+](=O)[O-])c5)nn4)CC3)c3ccccc23)c1 [B2Q014-01, 6-[4-[4-(5-Ethoxypyridin-3-yl)naphthalene-1-carbonyl]piperazin-1-yl]-N-[3-nitro-4-(2-phenylsulfanylethylamino)phenyl]sulfonylpyridazine-3-carboxamide]
19 | – | – | 17.1% | 13.2% | CCOc1cccc(-c2cc(C(=O)N3CCN(c4ccc(C(=O)NS(=O)(=O)c5ccc(NCCSc6ccccc6)c([N+](=O)[O-])c5)nn4)CC3)cc(C(C)(C)C)c2)c1 [B2Q015-01, 6-[4-[3-tert-Butyl-5-(3-ethoxyphenyl)benzoyl]piperazin-1-yl]-N-[3-nitro-4-(2-phenylsulfanylethylamino)phenyl]sulfonylpyridazine-3-carboxamide]
20 | – | – | 10.6% | 6.5% | CCOc1cncc(-c2cc(C(=O)N3CCN(c4ccc(C(=O)NS(=O)(=O)c5ccc(NCCSc6ccccc6)c([N+](=O)[O-])c5)nn4)CC3)cc(C(C)(C)C)c2)c1 [B2Q016-01, 6-[4-[3-tert-Butyl-5-(5-ethoxypyridin-3-yl)benzoyl]piperazin-1-yl]-N-[3-nitro-4-(2-phenylsulfanylethylamino)phenyl]sulfonylpyridazine-3-carboxamide]
21 | – | – | 12.8% | 0.2% | CCOc1cccc(-c2cc(C(=O)N3CCN(c4ccc(C(=O)NS(=O)(=O)c5ccc(NCCSc6ccccc6)c([N+](=O)[O-])c5)nn4)CC3)cc(C(F)(F)F)c2)c1 [B2Q017-01, 6-[4-[3-(3-Ethoxyphenyl)-5-(trifluoromethyl)benzoyl]piperazin-1-yl]-N-[3-nitro-4-(2-phenylsulfanylethylamino)phenyl]sulfonylpyridazine-3-carboxamide]
22 | – | – | – | 0.0% | CCOc1cncc(-c2cc(C(=O)N3CCN(c4ccc(C(=O)NS(=O)(=O)c5ccc(NCCSc6ccccc6)c([N+](=O)[O-])c5)nn4)CC3)cc(C(F)(F)F)c2)c1 [B2Q018-01, 6-[4-[3-(5-Ethoxypyridin-3-yl)-5-(trifluoromethyl)benzoyl]piperazin-1-yl]-N-[3-nitro-4-(2-phenylsulfanylethylamino)phenyl]sulfonylpyridazine-3-carboxamide]
